How the values were obtained:
[1] = system: cysteines in MDA-MB-231 and Ramos cell proteomes; assay: Competitive isoTOP-ABPP in cell lysates (in vitro): proteomic reactivity / liganded cysteine rate; assay type: binding, human
Protocol: All cell lines were obtained from ATCC, were used with a low passage number and were grown at 37° C. with 5% CO2. MDA-MB-231 cells and HEK-293T cells were grown in DMEM supplemented with 10% fetal bovine serum, penicillin, streptomycin and glutamine. Jurkat, Ramos and MUM2C cells were grown in RPMI-1640 medium supplemented with 10% fetal bovine serum, penicillin and streptomycin. For in vitro labeling, cells were grown to 100% confluence for MDA-MB-231 cells or until cell density reached 1.5 million cells/mL for Ramos and Jurkat cells. […] Cell pellets were lysed by sonication and fractionated (100,000 g, 45 min) to yield soluble and membrane fractions, which were then adjusted to a final protein concentration of 1.5 mg/mL for proteomics experiments and 1 mg/mL for gel-based ABPP experiments. The soluble lysate was prepared fresh from frozen pellets directly before each experiment. Protein concentration was determined using the Bio-Rad DC™ protein assay kit.
For each sample, 100 μL of streptavidin-agarose beads slurry (Pierce) was washed in 10 mL PBS and then resuspended in 5 mL PBS. The SDS-solubilized proteins were added to the suspension of streptavidin-agarose beads and the bead mixture was rotated for 3 h at ambient temperature. After incubation, the beads were pelleted by centrifugation (1,400 g, 3 min) and were washed (2×10 mL PBS and 2×10 mL water).
The beads were transferred to eppendorf tubes with 1 mL PBS, centrifuged (1,400 g, 3 min), and resuspended in PBS containing 6 M urea (500 μL). To this was added 10 mM DTT (25 μL of a 200 mM stock in water) and the beads were incubated at 65° C. for 15 mins. 20 mM iodoacetamide (25 μL of a 400 mM stock in water) was then added and allowed to react at 37° C. for 30 mins with shaking. The bead mixture was diluted with 900 μL PBS, pelleted by centrifugation (1,400 g, 3 min), and resuspended in 200 μL PBS. To this was added 1 mM CaCl2 ([…]) and trypsin (2 μg, Promega, sequencing grade) and the digestion was allowed to proceed overnight at 37° C. with shaking. The beads were separated from the digest with Micro Bio-Spin columns (Bio-Rad) by centrifugation (1,000 g, 1 min), washed (2×1 mL PBS and 2×1 mL water) and then transferred to fresh eppendorfs with 1 mL water. The washed beads were washed once further in 140 μL TEV buffer (50 mM Tris, pH 8, 0.5 mM EDTA, 1 mM DTT) and then resuspended in 140 μL TEV buffer. 5 μL TEV protease (80 μM) was added and the reactions were rotated overnight at 29° C. The TEV digest was separated from the beads with Micro Bio-Spin columns by centrifugation (1,400 g, 3 min) and the beads were washed once with water (100 μL). The samples were then acidified to a final concentration of 5% (v/v) formic acid and stored at −80° C. prior to analysis.

ACAT1 C119 (P24752) = target: T1, ACAT1 C119 (P24752) (Homo sapiens, UniProt P24752); assay: Competitive isoTOP-ABPP, cell lysates; assay type: binding; conditions: 500 μm, in-vitro_ramos_231
T1 sequence (P24752 34-427): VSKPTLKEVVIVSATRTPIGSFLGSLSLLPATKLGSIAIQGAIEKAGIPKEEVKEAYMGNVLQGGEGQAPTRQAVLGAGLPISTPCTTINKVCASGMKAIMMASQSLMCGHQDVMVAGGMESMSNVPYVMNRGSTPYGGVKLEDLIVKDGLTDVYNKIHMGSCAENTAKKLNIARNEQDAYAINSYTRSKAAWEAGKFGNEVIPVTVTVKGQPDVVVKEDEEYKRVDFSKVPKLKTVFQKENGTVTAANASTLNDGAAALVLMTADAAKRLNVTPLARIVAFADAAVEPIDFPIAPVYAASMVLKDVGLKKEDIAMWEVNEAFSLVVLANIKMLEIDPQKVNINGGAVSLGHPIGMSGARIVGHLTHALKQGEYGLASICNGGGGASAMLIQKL

ACAT1 C196 (P24752) = target: T2, ACAT1 C196 (P24752) (Homo sapiens, UniProt P24752); assay: Competitive isoTOP-ABPP, cell lysates; assay type: binding; conditions: 500 μm, in-vitro_ramos_231
T2 sequence (P24752 34-427): T1 sequence (P24752 34-427)

ACAT1 C126 (P24752) = target: T3, ACAT1 C126 (P24752) (Homo sapiens, UniProt P24752); assay: Competitive isoTOP-ABPP, cell lysates; assay type: binding; conditions: 500 μm, in-vitro_ramos_231
T3 sequence (P24752 34-427): T1 sequence (P24752 34-427)

IDH1 C269 (O75874) = IDH1 C269 (O75874) (Homo sapiens, UniProt O75874); assay: Competitive isoTOP-ABPP, cell lysates; assay type: binding; conditions: 500 μm, in-vitro_ramos_231
IDH1 C269 (O75874), sequence (O75874 whole entry, the tested form may be a part): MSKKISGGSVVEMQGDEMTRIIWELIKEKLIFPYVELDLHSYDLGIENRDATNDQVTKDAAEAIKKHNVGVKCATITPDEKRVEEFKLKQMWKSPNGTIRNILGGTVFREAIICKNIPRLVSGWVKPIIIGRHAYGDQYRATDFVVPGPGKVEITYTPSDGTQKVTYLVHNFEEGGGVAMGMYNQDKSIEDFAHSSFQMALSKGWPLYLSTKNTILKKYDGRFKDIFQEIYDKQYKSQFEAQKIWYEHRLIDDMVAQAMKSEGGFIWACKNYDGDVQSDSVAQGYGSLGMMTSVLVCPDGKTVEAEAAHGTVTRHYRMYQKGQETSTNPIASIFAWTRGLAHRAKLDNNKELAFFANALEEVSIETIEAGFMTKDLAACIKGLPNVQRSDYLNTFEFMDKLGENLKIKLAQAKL
Protocol: (§1) TEV digests were pressure loaded onto a 250 μm (inner diameter) fused silica capillary column packed with C18 resin (Aqua 5 μm, Phenomenex). The samples were analyzed by multidimensional liquid chromatography tandem mass spectrometry (MudPIT), using an LTQ-Velos Orbitrap mass spectrometer (Thermo Scientific) coupled to an Agilent 1200-series quaternary pump. The peptides were eluted onto a biphasic column with a 5 μm tip (100 μm fused silica, packed with C18 (10 cm) and bulk strong cation exchange resin (3 cm, SCX, Phenomenex,)) in a 5-step MudPIT experiment, using 0%, 30%, 60%, 90%, and 100% salt bumps of 500 mM aqueous ammonium acetate and using a gradient of 5-100% buffer B in buffer A (buffer A: 95% water, 5% acetonitrile, 0.1% formic acid; buffer B: 5% water, 95% acetonitrile, 0.1% formic acid) as has been described in Weerapana et al. Nat Protoc 2:1414-1425 (2007). Data was collected in data-dependent acquisition mode with dynamic exclusion enabled (20 s, repeat of 2). One full MS (MS1) scan (400-1800 m/z) was followed by 30 MS2 scans (ITMS) of the nth most abundant ions.
(§2) The ratios of heavy/light for each unique peptide (DMSO/compound treated; isoTOP-ABPP ratios, R values) were quantified with in-house CIMAGE software, using default parameters (3 ms s per peak and signal to noise threshold 2.5). Site-specific engagement of electrophilic fragments was assessed by blockade of IA-alkyne probe labeling. […] Ratios for unique peptide entries were calculated for each experiment; overlapping peptides with the same modified cysteine (e.g. different charge states, MudPIT chromatographic steps or tryptic termini) were grouped together and the median ratio was reported as the final ratio (R). The peptide ratios reported by CIMAGE were further filtered to ensure the removal or correction of low quality ratios in each individual dataset. The quality filters applied were the following: removal of half tryptic peptides; for ratios with high standard deviations from the median (90% of the median or above) the lowest ratio was taken instead of the median; removal of peptides with R=20 and only a single ms2 event triggered during the elution of the parent ion; manual annotation of all the peptides with ratios of 20, removing any peptides with low-quality elution profiles that remained after the previous curation steps. Proteome reactivity values for individual fragments were computed as the percentage of the total quantified cysteine-containing peptides with R values≥4 (defined as liganded cysteines) for each replicate experiment and the final proteome reactivity value was calculated as the mean for all replicate experiments for each fragment from both MDA-MB-231 and Ramos cellular proteomes.
(§3) Biological replicates of the same compound and cell-line were averaged if the standard deviation was below 60% of the mean; otherwise the lowest value of the ratio set was taken.

GSTP1 C48 (P09211) = GSTP1 C48 (P09211) (Homo sapiens, UniProt P09211); assay: Competitive isoTOP-ABPP, cell lysates; assay type: binding; conditions: 500 μm, in-vitro_ramos_231;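 note: Heavy/light ratio DMSO over fragment-treated so higher means more cysteine engagement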
GSTP1 C48 (P09211), sequence (P09211 whole entry, the tested form may be a part): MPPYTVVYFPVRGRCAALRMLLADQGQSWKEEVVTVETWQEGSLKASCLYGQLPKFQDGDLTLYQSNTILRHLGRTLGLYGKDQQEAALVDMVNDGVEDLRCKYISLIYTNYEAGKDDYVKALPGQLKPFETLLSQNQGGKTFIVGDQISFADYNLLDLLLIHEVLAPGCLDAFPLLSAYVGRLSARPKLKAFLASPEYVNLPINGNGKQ
Protocol: as §1, §2, §3

PDIA6 C190 (Q15084) = target: T4, PDIA6 C190 (Q15084) (Homo sapiens, UniProt Q15084); assay: Competitive isoTOP-ABPP, cell lysates; assay type: binding; conditions: 500 μm, in-vitro_ramos_231;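 note: Heavy/light ratio DMSO over fragment-treated so higher means more cysteine engagement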
T4 sequence (Q15084 20-440): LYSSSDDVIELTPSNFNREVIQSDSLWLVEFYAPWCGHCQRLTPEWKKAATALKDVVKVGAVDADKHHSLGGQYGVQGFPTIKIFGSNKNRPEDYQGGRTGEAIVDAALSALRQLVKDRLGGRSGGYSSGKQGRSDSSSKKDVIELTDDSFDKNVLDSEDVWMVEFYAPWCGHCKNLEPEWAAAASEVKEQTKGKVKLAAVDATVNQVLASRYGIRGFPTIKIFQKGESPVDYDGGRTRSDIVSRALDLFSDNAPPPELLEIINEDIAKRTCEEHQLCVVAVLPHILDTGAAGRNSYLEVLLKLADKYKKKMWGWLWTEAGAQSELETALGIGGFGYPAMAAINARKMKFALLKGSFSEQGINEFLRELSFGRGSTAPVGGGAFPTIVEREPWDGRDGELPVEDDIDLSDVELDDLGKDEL
Protocol: as §1, §2, §3

PRMT1 C109 (Q99873) = PRMT1 C109 (Q99873) (Homo sapiens, UniProt Q99873); assay: Competitive isoTOP-ABPP, cell lysates; assay type: binding; conditions: 500 μm, in-vitro_ramos_231;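 note: Heavy/light ratio DMSO over fragment-treated so higher means more cysteine engagement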
PRMT1 C109 (Q99873), sequence (Q99873 whole entry, the tested form may be a part): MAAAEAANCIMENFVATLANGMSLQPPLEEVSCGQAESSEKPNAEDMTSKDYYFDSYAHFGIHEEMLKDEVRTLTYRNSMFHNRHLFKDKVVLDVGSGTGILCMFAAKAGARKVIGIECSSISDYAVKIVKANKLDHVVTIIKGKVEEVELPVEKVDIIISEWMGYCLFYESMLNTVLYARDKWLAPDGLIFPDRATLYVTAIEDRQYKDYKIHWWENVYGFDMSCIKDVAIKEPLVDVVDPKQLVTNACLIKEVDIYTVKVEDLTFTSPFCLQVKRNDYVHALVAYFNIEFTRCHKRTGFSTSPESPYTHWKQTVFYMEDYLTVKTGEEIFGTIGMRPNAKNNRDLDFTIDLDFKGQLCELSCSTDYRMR
Protocol: as §1, §2, §3

MLTK C22 (Q9NYL2) = MLTK C22 (Q9NYL2) (Homo sapiens, UniProt Q9NYL2); assay: Competitive isoTOP-ABPP, cell lysates; assay type: binding; conditions: 500 μm, in-vitro_ramos_231
MLTK C22 (Q9NYL2), sequence (Q9NYL2 whole entry): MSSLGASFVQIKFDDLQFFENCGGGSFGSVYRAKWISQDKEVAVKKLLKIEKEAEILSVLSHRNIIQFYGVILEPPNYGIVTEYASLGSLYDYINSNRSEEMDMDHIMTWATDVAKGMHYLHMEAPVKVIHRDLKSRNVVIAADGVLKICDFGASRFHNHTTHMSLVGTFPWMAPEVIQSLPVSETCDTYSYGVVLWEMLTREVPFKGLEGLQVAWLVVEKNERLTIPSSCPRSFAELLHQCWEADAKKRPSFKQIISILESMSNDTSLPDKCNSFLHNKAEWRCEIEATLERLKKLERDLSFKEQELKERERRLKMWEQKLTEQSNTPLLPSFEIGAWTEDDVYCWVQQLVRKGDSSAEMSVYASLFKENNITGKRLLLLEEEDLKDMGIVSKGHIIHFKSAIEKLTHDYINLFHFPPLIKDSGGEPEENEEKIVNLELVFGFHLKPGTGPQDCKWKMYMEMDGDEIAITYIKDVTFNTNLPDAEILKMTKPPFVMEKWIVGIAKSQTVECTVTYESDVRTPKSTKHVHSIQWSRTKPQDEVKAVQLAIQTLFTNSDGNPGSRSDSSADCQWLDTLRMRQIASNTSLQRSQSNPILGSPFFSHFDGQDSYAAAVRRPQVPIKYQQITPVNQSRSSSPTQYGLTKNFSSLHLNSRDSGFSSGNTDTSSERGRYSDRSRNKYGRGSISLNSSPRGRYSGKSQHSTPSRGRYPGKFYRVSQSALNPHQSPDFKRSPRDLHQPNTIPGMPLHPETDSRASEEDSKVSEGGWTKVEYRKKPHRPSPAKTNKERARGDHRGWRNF
Protocol: as §1, §2, §3

STAT3 C259 (P40763) = STAT3 C259 (P40763) (Homo sapiens, UniProt P40763); assay: Competitive isoTOP-ABPP, cell lysates; assay type: binding; conditions: 500 μm, in-vitro_ramos_231
STAT3 C259 (P40763), sequence (P40763 whole entry): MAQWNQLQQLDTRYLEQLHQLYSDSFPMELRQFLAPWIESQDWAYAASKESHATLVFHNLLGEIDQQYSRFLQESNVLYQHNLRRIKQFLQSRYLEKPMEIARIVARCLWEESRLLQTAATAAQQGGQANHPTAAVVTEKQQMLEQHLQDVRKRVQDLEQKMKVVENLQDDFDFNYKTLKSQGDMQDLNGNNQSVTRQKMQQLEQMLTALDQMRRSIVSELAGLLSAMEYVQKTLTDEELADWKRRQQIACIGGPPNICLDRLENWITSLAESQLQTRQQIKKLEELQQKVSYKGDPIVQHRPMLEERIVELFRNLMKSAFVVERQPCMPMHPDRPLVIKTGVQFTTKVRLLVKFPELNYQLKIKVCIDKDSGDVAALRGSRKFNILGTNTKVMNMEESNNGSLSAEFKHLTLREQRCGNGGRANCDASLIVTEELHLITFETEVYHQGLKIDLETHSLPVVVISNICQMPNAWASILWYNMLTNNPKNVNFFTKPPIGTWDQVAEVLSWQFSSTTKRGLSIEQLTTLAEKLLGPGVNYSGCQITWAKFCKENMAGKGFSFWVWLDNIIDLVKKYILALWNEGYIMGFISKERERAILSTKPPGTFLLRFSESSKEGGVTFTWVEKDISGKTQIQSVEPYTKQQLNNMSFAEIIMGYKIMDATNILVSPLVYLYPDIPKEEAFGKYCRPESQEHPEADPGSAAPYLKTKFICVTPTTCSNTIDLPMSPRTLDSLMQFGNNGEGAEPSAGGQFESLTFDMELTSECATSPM
Protocol: as §1, §2, §3

XPO1 C34 (O14980) = XPO1 C34 (O14980) (Homo sapiens, UniProt O14980); assay: Competitive isoTOP-ABPP, cell lysates; assay type: binding; conditions: 500 μm, in-vitro_ramos_231
XPO1 C34 (O14980), sequence (O14980 whole entry): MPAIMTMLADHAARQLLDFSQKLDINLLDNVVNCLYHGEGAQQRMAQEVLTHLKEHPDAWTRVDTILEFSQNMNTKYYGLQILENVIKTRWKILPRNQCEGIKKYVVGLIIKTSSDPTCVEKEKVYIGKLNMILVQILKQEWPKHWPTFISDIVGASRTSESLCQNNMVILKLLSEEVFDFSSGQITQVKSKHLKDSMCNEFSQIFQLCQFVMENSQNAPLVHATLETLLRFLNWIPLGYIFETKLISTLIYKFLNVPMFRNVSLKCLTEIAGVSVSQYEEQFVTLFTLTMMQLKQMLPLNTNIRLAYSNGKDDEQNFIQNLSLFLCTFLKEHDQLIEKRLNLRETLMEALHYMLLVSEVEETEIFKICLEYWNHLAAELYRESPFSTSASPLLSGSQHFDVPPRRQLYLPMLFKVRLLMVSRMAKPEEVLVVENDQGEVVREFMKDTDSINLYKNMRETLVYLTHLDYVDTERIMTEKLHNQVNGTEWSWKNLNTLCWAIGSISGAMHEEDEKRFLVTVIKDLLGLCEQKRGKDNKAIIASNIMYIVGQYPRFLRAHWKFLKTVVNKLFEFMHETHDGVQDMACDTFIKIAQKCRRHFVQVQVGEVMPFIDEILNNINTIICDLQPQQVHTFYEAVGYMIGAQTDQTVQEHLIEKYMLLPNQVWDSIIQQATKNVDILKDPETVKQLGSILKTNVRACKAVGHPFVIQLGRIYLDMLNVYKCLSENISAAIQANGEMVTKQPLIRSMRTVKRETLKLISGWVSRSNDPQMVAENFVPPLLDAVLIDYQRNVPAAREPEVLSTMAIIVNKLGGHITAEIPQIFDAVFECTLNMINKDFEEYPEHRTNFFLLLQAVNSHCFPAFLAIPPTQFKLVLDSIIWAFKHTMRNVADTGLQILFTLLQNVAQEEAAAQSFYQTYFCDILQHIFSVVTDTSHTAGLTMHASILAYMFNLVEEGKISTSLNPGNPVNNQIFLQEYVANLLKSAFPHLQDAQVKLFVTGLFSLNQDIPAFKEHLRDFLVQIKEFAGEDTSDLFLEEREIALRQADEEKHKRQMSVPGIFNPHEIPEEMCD
Protocol: as §1, §2, §3

DCUN1D1 C115 (Q96GG9) = DCUN1D1 C115 (Q96GG9) (Homo sapiens, UniProt Q96GG9); assay: Competitive isoTOP-ABPP, cell lysates; assay type: binding; conditions: 500 μm, in-vitro_ramos_231
DCUN1D1 C115 (Q96GG9), sequence (Q96GG9 whole entry): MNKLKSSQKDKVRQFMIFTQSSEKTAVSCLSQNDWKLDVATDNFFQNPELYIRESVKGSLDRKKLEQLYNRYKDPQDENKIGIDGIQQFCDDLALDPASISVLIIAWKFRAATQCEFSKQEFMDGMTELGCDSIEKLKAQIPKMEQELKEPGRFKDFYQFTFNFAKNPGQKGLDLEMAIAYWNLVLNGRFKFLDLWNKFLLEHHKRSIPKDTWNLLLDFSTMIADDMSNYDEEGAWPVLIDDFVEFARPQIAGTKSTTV
Protocol: as §1, §2, §3

CASP8 C360 (Q14790) = CASP8 C360 (Q14790) (Homo sapiens, UniProt Q14790); assay: Competitive isoTOP-ABPP, cell lysates; assay type: binding; conditions: 500 μm, in-vitro_ramos_231
CASP8 C360 (Q14790), sequence (Q14790 whole entry): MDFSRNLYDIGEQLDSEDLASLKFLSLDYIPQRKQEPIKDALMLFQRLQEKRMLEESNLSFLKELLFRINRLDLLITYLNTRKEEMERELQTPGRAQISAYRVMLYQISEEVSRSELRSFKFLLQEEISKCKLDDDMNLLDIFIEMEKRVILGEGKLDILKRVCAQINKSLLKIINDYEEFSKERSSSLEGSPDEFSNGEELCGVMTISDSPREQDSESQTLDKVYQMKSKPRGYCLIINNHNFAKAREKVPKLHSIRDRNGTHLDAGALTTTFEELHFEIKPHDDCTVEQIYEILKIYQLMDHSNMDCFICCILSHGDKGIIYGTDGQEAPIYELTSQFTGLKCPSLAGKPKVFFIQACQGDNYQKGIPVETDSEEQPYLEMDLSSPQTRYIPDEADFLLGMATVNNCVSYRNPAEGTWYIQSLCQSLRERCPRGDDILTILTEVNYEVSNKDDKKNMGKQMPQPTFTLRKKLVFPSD
Protocol: as §1, §2, §3

PDIA6 C55 (Q15084) = target: T5, PDIA6 C55 (Q15084) (Homo sapiens, UniProt Q15084); assay: Competitive isoTOP-ABPP, cell lysates; assay type: binding; conditions: 500 μm, in-vitro_ramos_231
T5 sequence (Q15084 20-440): T4 sequence (Q15084 20-440)
Protocol: as §1, §2, §3

ACAT1 C413 (P24752) = target: T6, ACAT1 C413 (P24752) (Homo sapiens, UniProt P24752); assay: Competitive isoTOP-ABPP, cell lysates; assay type: binding; conditions: 500 μm, in-vitro_ramos_231
T6 sequence (P24752 34-427): T1 sequence (P24752 34-427)

pro-CASP10 = pro-CASP10 (Homo sapiens, UniProt Q92851); assay: Blockade of probe 61 labeling of pro-CASP10; assay type: binding
pro-CASP10, sequence (Q92851 220-521): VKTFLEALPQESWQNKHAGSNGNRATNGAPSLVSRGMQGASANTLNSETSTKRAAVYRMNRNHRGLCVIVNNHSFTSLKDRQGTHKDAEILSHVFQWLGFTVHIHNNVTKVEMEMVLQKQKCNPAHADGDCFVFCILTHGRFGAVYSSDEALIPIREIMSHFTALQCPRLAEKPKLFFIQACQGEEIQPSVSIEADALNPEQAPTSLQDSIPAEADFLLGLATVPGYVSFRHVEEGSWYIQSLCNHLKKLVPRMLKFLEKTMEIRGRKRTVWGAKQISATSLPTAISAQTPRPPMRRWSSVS

pro-CASP8 = target: T7, pro-CASP8 (Homo sapiens, UniProt Q14790, D374A/D384A); assay: Click probe 61 labeling of pro-CASP8 and its competition; assay type: binding; conditions: 300 nM protein in MDA-MB-231 lysate; read-out: apparent IC50 for blockade of 61 labeling of pro-CASP8
T7 construct: a truncated CASP8 (residues 217-479) without the CARD domain; His6 (C); made in house; host or cells: E. coli BL21(DE3)pLysS
T7 sequence (Q14790 217-479 D374A/D384A): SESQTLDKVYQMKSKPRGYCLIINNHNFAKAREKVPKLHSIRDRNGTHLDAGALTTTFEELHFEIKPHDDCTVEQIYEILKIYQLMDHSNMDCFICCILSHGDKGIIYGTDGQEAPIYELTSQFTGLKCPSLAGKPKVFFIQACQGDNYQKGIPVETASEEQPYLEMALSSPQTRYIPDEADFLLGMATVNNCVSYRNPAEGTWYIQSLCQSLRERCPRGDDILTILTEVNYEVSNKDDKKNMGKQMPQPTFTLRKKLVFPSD

IMPDH2 (C140) = target: T8, IMPDH2 (C140) (Homo sapiens, UniProt P12268); assay: Click probe 18 labeling of recombinant IMPDH2 and its competition; assay type: binding; conditions: 500 μM of each nucleotide
T8 construct: Full length cDNAs encoding for IDH1 (Open Biosystems, Clone ID: 3880331) and IMPDH2 (Open Biosystems, Clone ID: 3447994); His6 (C); made in house; host or cells: E. coli BL21(DE3)

CC(=O)Nc1cc(C(F)(F)F)cc(C(F)(F)F)c1 [compound 17]
relative proteomic reactivity (in words) ([1]; 500 μM, electrophiles on common 3,5-di(trifluoromethyl)phenyl group): negligible activity | proteomic reactivity value (liganded cysteine rate) ([1]; fragment 500 μM, % of quantified cysteines with R ≥4): < 0.2%

Cc1ncc(CO)c(CNC(=O)CCl)c1O [compound 54]
isoTOP-ABPP reactivity profile ratio, P24752_C119 (ACAT1 C119 (P24752)): 1.0 | isoTOP-ABPP reactivity profile ratio, P24752_C196 (ACAT1 C196 (P24752)): 1.1 | isoTOP-ABPP reactivity profile ratio, P24752_C126 (ACAT1 C126 (P24752)): 1.1 | isoTOP-ABPP reactivity profile ratio, O75874_C269 (IDH1 C269 (O75874)): 1.1 | isoTOP-ABPP reactivity profile ratio, P09211_C48 (GSTP1 C48 (P09211)): 1.3 | isoTOP-ABPP reactivity profile ratio, Q15084_C190 (PDIA6 C190 (Q15084)): 1.2 | isoTOP-ABPP reactivity profile ratio, Q99873_C109 (PRMT1 C109 (Q99873)): 1.2 | isoTOP-ABPP reactivity profile ratio, Q9NYL2_C22 (MLTK C22 (Q9NYL2)): 1.1 | isoTOP-ABPP reactivity profile ratio, P40763_C259 (STAT3 C259 (P40763)): 1.3 | isoTOP-ABPP reactivity profile ratio, O14980_C34 (XPO1 C34 (O14980)): 1.1 | isoTOP-ABPP reactivity profile ratio, Q96GG9_C115 (DCUN1D1 C115 (Q96GG9)): 1.1 | isoTOP-ABPP reactivity profile ratio, Q14790_C360 (CASP8 C360 (Q14790)): 1.2 | isoTOP-ABPP reactivity profile ratio, Q15084_C55 (PDIA6 C55 (Q15084)): 1.2 | isoTOP-ABPP reactivity profile ratio, P24752_C413 (ACAT1 C413 (P24752)): 1.1

O=C(c1ccc(N2CCOCC2)cc1)N1CCC[C@H](N(C(=O)CCl)c2ccccc2)C1 [63-S]
activity against CASP10 (in words) (pro-CASP10): inactive against CASP10 | IC50 (pro-CASP8): 15 µM

Nc1ncnc2c1ncn2[C@@H]1O[C@H](COP(=O)(O)O)[C@@H](O)[C@H]1O [AMP]
inhibition of 18 labeling of IMPDH2 by nucleotides (IMPDH2 (C140)): inhibited

Nc1nc2c(ncn2[C@@H]2O[C@H](COP(=O)(O)OP(=O)(O)OP(=O)(O)O)[C@@H](O)[C@H]2O)c(=O)[nH]1 [GTP]
inhibition of 18 labeling of IMPDH2 by nucleotides (IMPDH2 (C140)): inhibited

— US10670605B2, “Cysteine reactive probes and uses thereof” (The Scripps Research Institute, priority 2015, dated 2020)
